Results from patent US5486511A, “4-amino-17β-(cyclopropyloxy)androst-4-en-3-one, 4-amino-17β-(cyclopropylamino)androst-4-en-3-one and related compounds as C17-20 lyase and 5α-reductase” (Merrell Dow Pharmaceuticals Inc., priority 1994, dated 1996).

Tests used:
rat lyase = test: Inhibition of rat steroid C17,20 lyase (testicular microsomes); format: biochemical; conditions: rat; 0.1 μM; preincubation 40 min
Procedure: (§1) The activity of the present compounds as inhibitors of steroid C17,20 lyase was established using microsomal preparations of the steroid C17,20 lyase enzyme from human or laboratory animal testes. Human testes used for this purpose were obtained from therapeutic orchiectomies. Specifically, microsomes were isolated from human, cynomolgus monkey, dog, rat or athymic nude mouse testicular tissue. The compound to be tested was dissolved in dimethyl sulfoxide and diluted in 0.05M potassium phosphate buffer to give the desired concentrations of the test compound. The potassium phosphate buffer was at pH 7.4 for the human, monkey and dog lyase assays and at pH 7.2 for the rat and athymic nude mouse lyase assays. Assays also contained 1 mM NADPH, 5 mM glucose-6-phosphate, 1 IU/ml glucose-6-phosphate dehydrogenase (an NADPH regenerating system) and microsomal protein in a total volume of 0.2 mL. Control assays contained all components including dimethyl sulfoxide, but with no test compound. All assays were performed in duplicate. […] Radioactivity in the steroid peaks was measured by a Radiomatic Model HS Flo-One detector.
(§2) The enzyme activity for each incubate was calculated from the percent conversion of substrate to products, and the results were expressed as percent inhibition of control. […] The Ki and kinact for time dependent inhibitors were determined by graphical analysis of Kitz-Wilson plots. […]

canine lyase = test: Inhibition of canine steroid C17,20 lyase (testicular microsomes); format: biochemical, dog; conditions: canine; 1 μM; preincubation 40 min
Procedure: as §1, §2

nude mouse lyase = test: Inhibition of athymic nude mouse steroid C17,20 lyase (testicular microsomes); format: biochemical; conditions: nude mouse; 0.01 μM; preincubation 40 min
Procedure: as §1, §2

[1] = tested on: human prostatic tumor xenographs (PC-82); test: Inhibition of human prostatic tumor growth (PC-82 xenografts in athymic mice); format: in vivo
Procedure: In this model, human prostatic tumor xenographs (PC-82) are grown in athymic mice. The tumors are serially transplantable, androgen-responsive, slow-growing (i.e. 20-30 days for tumor volume to double) and are moderately differentiated human prostatic adenocarcinoma. These tumors will regress following androgen ablation with a half-life of 18 days (van Weerden, W. M. et al., Prostate 23:149-164 (1993).
The above tumor model of androgen-dependent human prostatic cancer was utilized to evaluate 4-amino-17β-(cyclopropyloxy)androst-4-en-3-one for inhibition of prostatic tumor growth following daily oral treatment at 30 and 100 mg/kg/day (See Table 2). Two control groups were tested, including one which received only the delivery vehicle and another which were bilaterally castrated. Tumor volumes were measured three times per week using a digital caliper using the formula: V (mm^3)=d1 ×(d2)^2 /2 were d1 is the length and d2 the width. The relative percent change in tumor volume is based on the mean tumor volume of the vehicle control groups at week 0 being set equal to 100%.

For C[C@]12CC[C@H]3[C@@H](CCC4=C(N)C(=O)CC[C@@]43C)[C@@H]1CC[C@@H]2OC1CC1 [Compound 2, 4-Amino-17β-(cyclopropyloxy)androst-4-en-3-one], the “% Inhibition” value (rat lyase) was 70%, the “% Inhibition” value (canine lyase) was 57% and the “% Inhibition” value (nude mouse lyase) was 84%. The “Relative percent tumor volume compared to vehicle control at beginning of timed period” value (“Relative percent tumor volume” below) ([1]; 30 mg/kg/day oral, 0 weeks) was 105%, the Tumor volume ([1]; 30 mg/kg/day oral, 0 weeks) was 541 ± 71 mm^3 and the “Relative percent tumor volume” value ([1]; 30 mg/kg/day oral, +2 weeks) was 150%. The Tumor volume ([1]; 30 mg/kg/day oral, +2 weeks) was 771 ± 108 mm^3, the “Relative percent tumor volume” value ([1]; 30 mg/kg/day oral, +4 weeks) was 253% and the Tumor volume ([1]; 30 mg/kg/day oral, +4 weeks) was 1305 ± 309 mm^3. The “Relative percent tumor volume” value ([1]; 100 mg/kg/day oral, 0 weeks) was 83%, the Tumor volume ([1]; 100 mg/kg/day oral, 0 weeks) was 426 ± 49 mm^3 and the “Relative percent tumor volume” value ([1]; 100 mg/kg/day oral, +2 weeks) was 117%. The Tumor volume ([1]; 100 mg/kg/day oral, +2 weeks) was 601 ± 66 mm^3, the “Relative percent tumor volume” value ([1]; 100 mg/kg/day oral, +4 weeks) was 163% and the Tumor volume ([1]; 100 mg/kg/day oral, +4 weeks) was 840 ± 86 mm^3. For the same molecule, the “Inhibition of human prostatic tumor growth (in words)” value ([1]; daily oral treatment) was “prolonged inhibition of human prostatic tumor growth”.
